Reference: patent publication US20250170236A1, “A NOVEL CATIONIC ADJUVANT COMPOSITION” (STATENS SERUM INSTITUT, priority 2022, published 2025)

Test system: antigen-specific total IgG, IgG1 and IgG2c (H56 antigen)
Design: species or system CB6F1 mice
Settings: mouse, in vivo

Q: For CpG ODN 2006 [CpG2006], which “increased antibody responses (effect seen with DDA/MMG/CpG2006)” value is on record?
A: not observed
